Source: patent US6652860B1, “Peptide, apoEp 1.B, compositions and uses thereof” (University of Western Ontario, priority 1997, dated 2003)
Where no end group is shown, it is not given here.

Key:
[1] = test system: BALB/c naive T cells co-cultured with NOD splenocytes; test: Mixed leukocyte reaction, T cell allostimulatory activity of treated APC's; type: cell-based, mice; settings: particularly at 4×10^3 APC's per well
Procedure: Primary allogeneic MLR was set up with NOD splenocytes as stimulators and nylon wool enriched BALB/c naive T cells as responders. Stimulator cells were pre-incubated for 3 days with different combinations of apoEp1.B, GM-CSF, and PU5-1.8 supernatant containing TNF. Stimulator cells were then treated with mitomycin C (50 μg/ml, 20 min at 37° C.; Sigma) and co-cultured with 4×10^4 responder for 3 days at which time cells were pulsed with 50 μl [^3H]-TdR (0.5 μCi/well) for 24 hr. Cells were harvested (Tomtec) and [^3H]-TdR incorporation was measured on a Microbeta Liquid Scintillation Counter (Wallac). Each bar represents the mean cpm from triplicate cultures.
To measure the T cell allostimulatory or inhibitory ability of these DC's, 4×10^4 enriched BALB/c naive T cells were co-cultured with 40, 400, 4000 and 40,000 mitomycin C-treated NOD splenocytes which had been incubated with various stimualants for 3 d. T cell proliferation was measured following 3 days of co-culture by [^3H]-TdR incorporation. Bars represent the mean of triplicate wells (cpm+/−S.D.). * and ** represent p<0.05 and p<0.001, respectively in 2-way ANOVA's compared to medium alone (nil) controls. […] Upon combining responder T cells with APC, various exogenous factors were added, including 20 μg/ml Con A and 5 μg/ml apoEp1.B. Very little proliferation was detected in wells containing T cells alone or APC alone.

[2] = test system: iliofemoral artery of the rat; test: Balloon angioplasty injury model, plaque development in iliofemoral artery; type: in vivo; settings: treated rats
Procedure: To investigate the role of apoEp1.B peptide in inflammation, particularly in response to arterial injury, a balloon angioplasty injury model which has been well characterized by Dr. Alex Lucas (Lucas et al. 1996 Circ. 94:2898-900) was used. 300 μg/ml of apoEp1 or apoEp1.B peptide were infused intra-arterially immediately prior to angioplasty at the site of injury in the iliofemoral artery of the rat. Positive control SERP-1 and negative control saline alone were also used. The rats were monitored carefully and euthanized 6 weeks after treatment and iliofemoral arteries were assessed for plaque development by histochemistry.

PU5-1.8 cells [3] = test: DC marker changes (B7-1 FACS) of PU5-1.8 cells incubated with modified apoEp1.B peptides; type: cell-based, murine; settings: 20 hours
Procedure: Murine monocytic PU5-1.8 and J77A1.4 transformed cell lines, human monoblastic leukemia THP-1 and U-937, and murine B cell lymphoma A20 cells were cultured in RPMI 1640 medium (Gibco Laboratories, Grand Island, N.Y.) containing […] 2ME, 10 mM HEPES, 2 mM glutamine, 5.0 IU/ml penicillin streptomycin (Gibco) and 10%. heat inactivated Fetal Bovine Serum (FBS) (Hyclone Laboratories Inc., Logan, Utah)(cRPMI).
1×10^6 cells were washed with ice cold PBS and resuspended in 25 μl PBS and incubated with 10 μl normal mouse serum and fluorochrome conjugated anti-mouse D11a, CD11b, CD14, MHC class II, CD95, CD62L, CD62E, B7-1, B7-2 and ICAM-1 Pharmingen, Mississauga, Canada) monoclonal antibodies (mAb's) for 45 minutes on ice. endritic cell markers DEC-205, 33D1, CD11c (N418) unconjugated antibodies were imilarly treated, however, following primary antibody incubation,cells were washed 3 times and a secondary goat anti-rat (for 33D1 and DEC-205 ab's) and goat anti-hamster (for CD11c ab) fluorochrome-conjugated antibody was then added for 45 min on ice. Cells were then washed three times. All samples were resuspended in 300 μl PBS and the fluorescence of stained cells was analyzed on a FACScan flow cytometer (Becton Dickinson, Mountain View, Calif.) and data collected was analyzed using Lysis II (Becton-Dickinson) software. […]

splenocytes = test: Surface marker expression on unprimed splenocytes (FACS); type: cell-based, mice; settings: splenocytes (data not shown)
Procedure: (§1) 1×10^6 cells were washed with ice cold PBS and resuspended in 25 μl PBS and incubated with 10 μl normal mouse serum and fluorochrome conjugated anti-mouse D11a, CD11b, CD14, MHC class II, CD95, CD62L, CD62E, B7-1, B7-2 and ICAM-1 Pharmingen, Mississauga, Canada) monoclonal antibodies (mAb's) for 45 minutes on ice. endritic cell markers DEC-205, 33D1, CD11c (N418) unconjugated antibodies were imilarly treated, however, following primary antibody incubation,cells were washed 3 times and a secondary goat anti-rat (for 33D1 and DEC-205 ab's) and goat anti-hamster (for CD11c ab) fluorochrome-conjugated antibody was then added for 45 min on ice. Cells were then washed three times. All samples were resuspended in 300 μl PBS and the fluorescence of stained cells was analyzed on a FACScan flow cytometer (Becton Dickinson, Mountain View, Calif.) and data collected was analyzed using Lysis II (Becton-Dickinson) software.
(§2) Morphologically apoEp1.B-treated cells appeared DC-like. This was confirmed this by FACS analysis. Unprimed BALB/c splenocytes and PU5-1.8 cells were incubated for 24 hr with 100 μg/ml apoEp1.B or control peptide apoEp1.D and then stained for FACS analysis.
There were no changes in the expression of CD16/32 at any time.
Unprimed B6 and NOD splenocytes were incubated with 100 μg/ml apoEp1.B or apoEp1.D to determine whether apoEp1.B was strain-specific. […]

immune cells = test: Activation and differentiation of immune cells; type: cell-based
[4] = test system: Unprimed splenocytes, enriched spleen monocytes and monocytic PU5-1.8 and J77A4.1 cell lines; test: Dendritic-like cell morphology in vitro; type: cell-based, BALB/c mice; settings: after 2 hr, optimally at 100 μg/ml
Procedure: Unprimed splenocytes, enriched spleen monocytes and monocytic PU5-1.8 and J77A4.1 cell lines from BALB/c mice were incubated with 0, 1, 10, or 100 μg/ml apoEp1.B (239-252) or negative control apoEp1.D (236-249) peptide to assess activity. […] After 24 hr, morphologically these cells appeared less rounded, more granular.

PU5-1.8 cells [5] = test: DC-like surface marker expression on PU5-1.8 cells (FACS); type: cell-based, murine; settings: 100 μg/ml, 24 hr, 10^5 PU5-1.8 cells
Procedure: as §1, §2
To assess whether apoEp1.B-induced phenotypic changes are dose-dependent, 10^5 PU5-1.8 cells were incubated for 20 hr with 0 (medium), 1, 10 or 100 μg/ml apoEp1.B in 24-well plates and were then stained for FACS analysis. […]

GM-CSF: cytokine used to pre-incubate stimulator cells in MLR
allostimulation after APC pre-incubation [1]: dramatic increase in allostimulation

TQQIRLQAEIFQAR [apoEp1.B, TQQIRLQAEIFQAR]
adverse effects [2]: No adverse effects were observed

EEQ TQQ IRL QAE IFQ AR (EEQTQQIRLQAEIFQAR; Murine) [apoEp1]
DC Marker Changes (PU5-1.8 cells [3]; Table 1 elongations and truncations, 100 μg/ml peptide, 10^5 PU5-1.8 cells, B7-1 stain, FACS): slight | CD40 expression (splenocytes): increase in CD40 | L-selectin expression (splenocytes): decrease in L-selectin | induces activation and differentiation of immune cells (immune cells): does not induce DC's

apoEp1.D: negative control apoEp1.D (236-249) peptide (VAEVRAKLEEQAQQ; UniProt P02649 254-267, looked up, fragment)
detachment from plastic plates and aggregation in suspension [4]: not

AQQIRLQAEAFQAR (listed as Homo sapiens) [human apoEp1.B]
effect on surface marker changes compared to apoEp1.B (PU5-1.8 cells [3]; 100 μg/ml, PU5-1.8 cells): slightly reduced effect | cell clustering and marker increase compared to murine apoEp1.B (PU5-1.8 cells [5]): to a lesser degree

apoE: Human plasma VLDL purified apoE (Calbiochem) was used as native apoE
induces activation and differentiation of immune cells (immune cells): not
